“And” between values parts separate entries of the source, which are not always exact repeats. Equal entries are not always repeated.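 Cultured in 96-well plates, cells were exposed to test compound for 48 hours across five concentrations. GI50: concentration for 50% inhibition of growth. At the TGI there is no net growth.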
What was measured:
Assay in all cases: NCI tumour cell line growth inhibition, 48 h
[1] = test system: HL-60(TB) leukemia
[2] = test system: M14 melanoma
[3] = test system: SK-MEL-28 melanoma
[4] = test system: A549 NSCLC
[5] = test system: HCT-15 colon
[6] = test system: SK-MEL-2 melanoma
[7] = test system: MCF7 breast
[8] = test system: HOP-62 NSCLC
[9] = test system: NCI/ADR-RES ovarian
[10] = test system: HCT-116 colon

Row | Structure (SMILES) | GI50 [1] [µM] | TGI [1] [µM] | GI50 [2] [µM] | TGI [2] [µM] | GI50 [3] [µM] | TGI [3] | GI50 [4] [µM] | TGI [4] | GI50 [5] [µM] | TGI [5] | GI50 [6] [µM] | TGI [6] [µM] | GI50 [7] [µM] | TGI [7] [µM] | GI50 [8] [µM] | TGI [8] | GI50 [9] [µM] | TGI [9] [µM] | GI50 [10] [µM] | TGI [10]
1 | COc1ccc(C2NC(=S)NC3=C2COc2ccc(F)cc23)cc1OC (stereo not given) | 18.5 | 50.7 | 33.9 | > 100 | 41.2 | > 100 µM | 10.9 | 36.7 µM | 18.6 | 87 µM | 55.4 | > 100 | 31.2 | > 100 | 26.8 | > 100 µM | 18.9 | 44.4 | 16.6 | 57.1 µM
2 | COc1ccc(-c2nn(-c3cccc(Cl)c3)cc2-c2cc(-c3cccs3)no2)cc1 | 4.73 | 38.3 | 3.3 | 17.1 | 4.93 | 17.8 µM | 3.56 | 24.5 µM | 4.48 | 32.9 µM | 3.34 | 10.9 | 3.53 | 16.9 | 13.9 | 28.1 µM | 4.01 | 38.1 | 3.03 | 12.7 µM
3 | COc1ccc(-c2cn(-c3cc(OC)c(OC)c(OC)c3)c(=O)n2-c2ccccc2)cc1 | 28.1 | > 100 | > 100 | > 100 | > 100 | > 100 µM | > 100 | > 100 µM | 52.6 | > 100 µM | > 100 | > 100 | 86 | > 100 | 66.2 | > 100 µM | 74.6 | > 100 | > 100 | > 100 µM
4 | NC(=O)c1c(NC(=O)c2cccc(C(F)(F)F)c2)sc2c1CCC(=O)C2 | 0.442 | 6.2 | 0.437 | 11.6 | 1 | 15.2 µM | 1.88 | > 100 µM | 0.321 | 1.82 µM | 2.06 | 6.25 | 0.203 | > 100 | 3.06 | > 91.5 µM | 0.528 | 7.69 | 0.249 | > 32.2 µM
5 | N#Cc1c(-c2ccc(Cl)cc2)csc1NC(=O)Nc1cccc(C(F)(F)F)c1 | 2.43 | 6.69 | 2.88 | 10.1 | 2.65 | 8.97 µM | 2.57 | 11.4 µM | 2.38 | 10.2 µM | 2 | 4.57 | 3.04 | 9.97 | 2.33 | 8.04 µM | 2.1 | 4.7 | 2.33 | 8.44 µM
6 | CC(=O)OC1Oc2cc(C)c(C)cc2-c2oc(=O)c(-c3ccccc3)cc21 (stereo not given) | 0.111 | 0.467 | 0.351 | > 100 | 0.464 | 55.6 µM | 0.608 | > 53.8 µM | 0.323 | > 100 µM | 0.572 | > 63.3 | 0.28 | 27.5 | 0.44 | 21.9 µM | 0.213 | 0.908 | 0.455 | 46.9 µM
7 | CCn1c(-c2nonc2N)nc2c(C#CC(C)(C)O)ncc(OC[C@@H]3CCCN3)c21 | 5.63 | 15 | 6.95 | > 25 | 12.1 | > 25 µM | 6.96 | > 25 µM | > 25 | > 25 µM | 4.56 | 15 | 1.71 | 9.73 | 7.07 | 24.9 µM | > 25 | > 25 | 5.34 | 20.2 µM
8 | O=C(Nc1nc2ccc(F)cc2s1)c1cccnc1Nc1ccc(Cl)cc1Cl | 2 | 5.7 | 3.18 | 14.6 | 3.69 | 18.6 µM | 3.51 | 16.1 µM | 3.35 | 20.3 µM | 3.3 | > 26.2 | 2.73 | 13 | 3.05 | 12.8 µM | 2.59 | 10.5 | 2.07 | 8.01 µM
9 | COc1cccc(C2CC(=O)Nc3cc4c(cc32)CCC4)c1OC (stereo not given) | 2.73 | 7.88 | 2.59 | 8.94 | 5.33 | 28.3 µM | 0.859 | > 33.8 µM | 3.63 | 25.8 µM | 4.12 | 17.3 | 3.22 | 18.4 | 5.97 | > 46.8 µM | 2.43 | 7.14 | 3.61 | 16 µM
10 | COc1ccc(CNC(=O)c2ccc(-c3cc(-c4nnc(C)o4)ccc3C)cc2)cc1 | > 18.5 | > 25 | > 25 | > 25 | > 25 | > 25 µM | 22.8 | > 25 µM | 19.9 | > 25 µM | > 25 | > 25 | 9.86 | > 25 | 17.5 | > 25 µM | 16.1 | > 25 | 14.6 | > 25 µM
11 | C=C[C@@]1(C)CC(=O)[C@]2(O)[C@@]3(C)[C@@H](O)CCC(C)(C)[C@@H]3[C@H](O)[C@@H](OC(C)=O)[C@@]2(C)O1 |  | > 100 |  | > 100 |  | > 100 µM |  | > 100 µM |  | > 100 µM |  | > 100 |  | > 100 |  | > 100 µM |  | > 100 |  | > 100 µM
12 | COc1cc(/C=C2\C(=O)Nc3ccc(Br)cc32)cc(OC)c1OC | 4.36 | > 100 | 15.7 | > 100 | 58.9 | > 100 µM | 10.3 | > 100 µM | 3.37 | > 100 µM | 12.9 | 55.2 | 2.64 | > 100 | 20.3 | 81.4 µM | 4.01 | 29.4 | 4.86 | > 100 µM
13 | C=C1C(=O)C23CC1CCC2C12CO[C@@]3(O)[C@@H](O)C1C(C)(C)C=CC2=O (stereo not given in full) | 0.434 |  |  | 6.1 | 1.58 | 1.48 µM and 3.35 µM | 16.3 | 7.63 µM and 34.3 µM | 1.81 | 1.86 µM and 3.65 µM |  | 1.99 |  | 11.6 | 25.2 | 14.4 µM and 67.2 µM |  | 60.4 | 2.9 | 1.01 µM and 9.03 µM
14 | COc1ccc(-c2nn(-c3cccc(Cl)c3)cc2/C=C2\C(=N)N(c3ccccc3)N=C2N)cc1 | 0.414 | 9.24 | 0.331 | 5.42 | 6.59 | > 100 µM | 0.54 | > 82.2 µM | 0.489 | 26 µM | 1.66 | 12.6 | 2.2 | 33.5 | 16 | > 80.6 µM | 1.32 | > 48.9 | 1.59 | 17.2 µM
15 | Cc1ccc(NCCNCC(O)CO)c2c(=O)c3ccccc3sc12 (stereo not given) | 1.62 | 3.7 | 1.55 | 3.13 | 1.69 | 3.3 µM | 0.849 | 2.38 µM | 1.29 | 2.72 µM | 1.77 | 3.49 | 1.19 | 2.65 | 1.35 | 2.95 µM | 1.67 | 3.75 | 1.05 | 2.3 µM

— PubChem BioAssay (NCI)
